Results from patent US7056890B2, “Combination therapy for effecting weight loss and treating obesity” (VIVUS, Inc., priority 1999, dated 2006).

Experiments:
[1] = Trial of phentermine in combination with topiramate to effect weight loss in patients; type: in vivo, human; conditions: follow-up 2-9 weeks
Description: Patients as part of the following trial were treated according to the following dosage regimen. Patients took phentermine at a dose of 15 mg daily throughout the weight loss program, before breakfast. For the first 6 days, patients took one 25 mg tablet of topiramate before supper. For the next 6 days, patients took two 25 mg tablets of topiramate before supper. For the next 7 days (days 13–19), patients took 100 mg before supper daily using 4–25 mg tablets of topiramate daily. For days 20–26, patients took 150 mg of topiramate daily consisting of one-half of a 200 mg tablet and two 25-mg mg tablets of topiramate. From that point on, unless instructed otherwise by the physician, patients continued to take one 200 mg topiramate tablet daily before supper and continued the 15 mg phentermine daily in the morning. Patients were advised to drink at least eight (8) full glasses of water daily to reduce the risk of kidney stones which may result from taking topiramate.
Patients were advised that while the effect of phentermine is fairly rapid, the effect of topiramate is slower in onset. The weight reduction effect of topiramate will continue for as long as 18 months on the medication. That is, the patient can expect to continue gradual weight loss for up to 18 months on the medication. Of course, weight loss is maximal if the patient follows diet and/or exercise programs. The weight loss should exceed 15% of the patients starting weight. Thus, if the patient weighs about 200 pounds as of the start date, he/she might expect to lose at least 30 pounds in a period of 12–18 months. The following patient data has been collected.
A total of thirteen patients were treated for 1–9 months with phentermine (15 mg daily) in the morning and up to 400 mg of topiramate (median dose 200 mg), in the evening. […] Along with taking medication, patients were instructed to walk at least 30 minutes three times per week and to follow a low fat diet. No patients had taken diet medication for at least 3 months prior to treatment. Average baseline BMI was 32.5 (range 26–48).

[2] = literature studies; cited from earlier work
[3] = Case history of patient(B), topiramate added to phentermine; type: in vivo, human; conditions: on phentermine after Redux withdrawal
Description: They once weighed as much as 395 pounds. When Redux was still on the mark in the United States, they were treated with a combination of diet, exercise, Redux and phentermine. Their lowest weight attained was 285 pounds. When Redux was withdrawn from the market, they remained on phentermine but gained weight back to 295–300 pounds. When topiramate was added to their regimen, they managed to lose 25 pounds and is currently at 271 pounds, their lowest weight since they were […].

Row | SMILES | weight loss, drug compared with placebo [2] | also measured
1 | CC(C)CC(N(C)C)C1(c2ccc(Cl)cc2)CCC1.Cl (centres unmarked) [Meridia] |  | Follow-Up Weight (lbs) ([1]; individual patients (one per line), phentermine 15 mg daily, topiramate titrated 25 to 200 mg daily): 177 lbs; Follow-Up Blood Pressure ([1]; individual patients): 120/80; % Weight Loss ([1]; individual patients, versus start weight): 2.7%
2 | CCN[C@@H](C)Cc1cccc(C(F)(F)F)c1 [dexfenfluramine] | about 5 % of body weight | 
3 | CCCCCCCCCCC[C@@H](C[C@@H]1OC(=O)[C@H]1CCCCCC)OC(=O)[C@H](CC(C)C)NC=O [orlistat] | about 5 % of body weight | 
4 | CC(C)(N)Cc1ccccc1 [phentermine] | about 5 % of body weight | weight regained [3]: 295–300 pounds
5 | CC(C)CC(N(C)C)C1(c2ccc(Cl)cc2)CCC1 (centres unmarked) [sibutramine] | about 5 % of body weight | 
